Experimental data published in patent publication US6518262B1, “22R-hydroxycholesta-8, 14-diene derivatives for the inhibition of meiosis” (Akzo Nobel N.V., priority 1999, dated 2003).

Tests used:
[1] = system: cumulus enclosed oocytes (CEO); experiment: Oocyte assay, antagonistic testing, inhibition of 22S-hydroxy-FF-Mas induced maturation in cumulus enclosed oocytes (CEO assay); assay type: cell-based, mice (B6D2-F1, strain C57BL×DBA); settings: 22S-hydroxy-FF-Mas 5 μM, control (22S-hydroxy-FF-Mas alone) in brackets
Procedure: The meiosis inhibiting activity of the 22R-hydroxycholesta-8,14-diene derivatives of the invention is measured in an in vitro oocyte assay as the ability to inhibit the FF-Mas or 22S-hydroxy-FF-Mas induced maturation, in hypoxanthine media, in denuded oocytes (DO) or cumulus enclosed oocytes (CEO), respectively. Natural resumption of meiosis can be mimicked in vitro by addition of FF-Mas or other agonists to the culture medium containing hypoxanthine. The antagonistic activity of the compounds is measured as the ability to inhibit the FF-Mas or 22S-hydroxy-FF-Mas induced oocyte maturation in denuded oocytes or cumulus enclosed oocytes, respectively, in vitro. Ovaries are obtained from immature female mice (B6D2-F1, strain C57BL×DBA). At the age of 19, 20 or 21 days the mice are injected subcutaneously with a single dose of 20 IU follicle stimulating hormone (Humegon, Organon, The Netherlands) in saline. Forty-eight hours after follicle stimulating hormone injection mice are killed by cervical dislocation. The ovaries are removed, freed of extraneous tissue and placed in a multidish containing 0.5 ml preparation medium at 37° C. L-15 Leibovitz medium (Gibco, pH 7.3±0.1) supplemented with bovine serum albumin (3 mg·ml^−1), L-glutamine (0.23 mM), sodium pyruvate (2 mM) and hypoxanthine (4 mM) is used as preparation medium. The antral follicles of the ovaries are punctured under a dissecting microscope using two 27-gauge needles attached to two 1 ml syringes. […] At t=0 the number of oocytes with intact germinal vesicles (GV) or germinal vesicle break-down (GVBD) is counted under an inverted microscope with differential interference contrast equipment. […] At the end of the culture period the number of oocytes with GV or GVBD per group is counted. For statistical analysis the percentage germinal vesicle breakdown is calculated for each group in one block. These percentages are subjected to arcsin transformation, and differences between control and test compounds are analyzed by an ANOVA test for a randomized block design. […]

[2] = system: cumulus enclosed oocytes (CEO); experiment: Oocyte assay, agonistic testing, cumulus enclosed oocytes (CEO assay); assay type: cell-based, mice (B6D2-F1, strain C57BL×DBA); settings: compound 5 μM, hypoxanthine medium, 22 hours culture, control value in brackets
Source text: Oocytes arrested in meiosis contain diffused chromosomes which are surrounded by an intact nuclear envelope known as the germinal vesicle (GV). Upon reinitiation of meiosis by the midcycle gonadotropin surge, the chromosomes recondense and the GV breaks down (GVBD). In vivo, the oocyte is exposed to hypoxanthine (HX), which maintains the oocyte arrested in the meiotic prophase. This meiotic arrest can be mimicked in vitro by addition of hypoxanthine to the culture medium. The agonistic activity of meiosis activating substances is measured as the ability to overcome the hypoxanthine maintained meiotic arrest in denuded oocytes (DO) or cumulus enclosed oocytes (CEO), i.e. as the ability to induce meiotic resumption in vitro.
Ovaries are obtained from immature female mice (B6D2-F1, strain C57BL×DBA). At the age of 19, 20 or 21 days the mice are injected subcutaneously with a single dose of 20 IU follicle stimulating hormone (Humegon, Organon, The Netherlands) in saline.
Forty-eight hours after follicle stimulating hormone injection mice are killed by cervical dislocation. The ovaries are removed, freed of extraneous tissue and placed in a multidish containing 0.5 ml preparation medium at 37° C. L-15 Leibovitz medium (Gibco, pH 7.3±0.1) supplemented with bovine serum albumin (3 mg·ml^−1), L-glutamine (0.23 mM), sodium pyruvate (2 mM) and hypoxanthine (4 mM) is used as preparation medium. […]
The oocyte assay is performed in 3 blocks, each block represents the ovaries of one mouse (randomized block design). […] At t=0 the number of oocytes with intact germinal vesicles (GV) or germinal vesicle break-down (GVBD) is counted under an inverted microscope with differential interference contrast equipment. […] At the end of the culture period the number of oocytes with GV or GVBD per group is counted. For statistical analysis the percentage germinal vesicle breakdown is calculated for each group in one block. These percentages are subjected to arcsin transformation, and differences between control and test compounds are analyzed by an ANOVA test for a randomized block design. […]

Row | Structure (SMILES) | % GVBD CEO assay exp. ([1]; compound tested 5 M) | % GVBD CEO assay exp. [1] | % GVBD CEO assay exp. [2]
1 | CC(C)CC[C@@H](O)[C@@H](C)[C@H]1CC=C2C3=C(CC[C@@]21C)[C@@]1(C)CC[C@H](O)C(C)(C)[C@@H]1CC3 [Example 1, (3β,5α,20S,22R)-4,4-Dimethylcholesta-8,14-diene-3,22-diol] | 10(93)^3% | – | –
2 | CC(C)=CC[C@@H](O)[C@@H](C)[C@H]1CC=C2C3=C(CC[C@@]21C)[C@@]1(C)CC[C@H](O)C(C)(C)[C@@H]1CC3 [Example 2, (3β,5α,20S,22R)-4,4-Dimethylcholesta-8,14,24-triene-3,22-diol] | – | 0(84)^4% | 2(2) %
